A value given as a limit tells only on which side of the number the result lay.

The subject of this assay is PC-12. The experiment in a line: Neuroprotective activity in rat PC12 cells expressing SOD1 G93A mutant assessed as increase in cell viability after 48 hrs by CalceinAM-based fluorescence assay. Format: functional. As to conditions: PC-12, 48 h.
Turning to `Cn1[nH]c(COc2cc(Cl)cc(Cl)c2)cc1=O`, the EC50 was 670 nM.

For the compound `O=c1cc(COc2cc(Cl)cc(Cl)c2)[nH]n1-c1ccc(Cl)cc1`, the EC50 was 1730 nM. As for `O=c1cc(COc2cc(Cl)cc(Cl)c2)[nH]n1Cc1ccccc1`, the EC50 is 130 nM. On to `O=C1N[C@H]2[C@H](CS[C@H]2CCCCC(=O)n2[nH]c(COc3cc(Cl)cc(Cl)c3)cc2=O)N1`, for which the EC50 is 560 nM. Regarding `O=Cn1[nH]c(COc2cc(Cl)cc(Cl)c2)cc1=O`, the EC50 is 490 nM. Under `O=c1cc(COc2cc(Cl)cc(Cl)c2)[nH]n1-c1ccccc1` stands 1030 nM; under `O=C1C=C(COc2cc(Cl)cc(Cl)c2)CN1Cc1ccccc1`, above 32000 nM.

For the compound `N#CCC(=O)n1[nH]c(COc2cc(Cl)cc(Cl)c2)cc1=O`, the concentration for a half-maximal effect (EC50) is 420 nM. As for `O=c1cc(COc2cc(Cl)cc(Cl)c2)[nH]n1CCO`, the EC50 is above 32000 nM.

For `COc1ccc(Cn2[nH]c(COc3cc(Cl)cc(Cl)c3)cc2=O)cc1`, the EC50 is above 32000 nM. The value for `CC(=O)n1[nH]c(COc2cc(Cl)cc(Cl)c2)cc1=O` was 270 nM. Under `O=C(c1ccc(N=C=S)cc1)n1[nH]c(COc2cc(Cl)cc(Cl)c2)cc1=O` stands 330 nM.

On to `O=c1cc(COc2cc(Cl)cc(Cl)c2)[nH]n1CCCO`, for which the EC50 was 340 nM.

`O=C(CCCC[C@@H]1SC[C@@H]2NC(=O)N[C@@H]21)NCCOCCOCCOCCOCCC(=O)n1[nH]c(COc2cc(Cl)cc(Cl)c2)cc1=O`: the EC50 is 670 nM.

Turning to `O=c1cc(COc2cc(Cl)cc(Cl)c2)[nH]n1Cc1cccc(O)c1`, the EC50 was 360 nM.

Turning to `O=c1cc(COc2cc(Cl)cc(Cl)c2)[nH]n1-c1nc(-c2ccccc2)cs1`, the EC50 was 1000 nM. Consider `O=C(c1cccnc1)n1[nH]c(COc2cc(Cl)cc(Cl)c2)cc1=O`, for which the EC50 is 1320 nM. As to `Cn1c(COc2cc(Cl)cc(Cl)c2)cc(=O)n1C`, the EC50 was above 32000 nM. For `O=c1cc(COc2cc(Cl)cc(Cl)c2)[nH]n1-c1ccc([N+](=O)[O-])cc1[N+](=O)[O-]`, the EC50 is above 32000 nM. Turning to `Cc1nnsc1C(=O)n1[nH]c(COc2cc(Cl)cc(Cl)c2)cc1=O`, the EC50 is 1710 nM. As for `Nc1ccc(C(=O)n2[nH]c(COc3cc(Cl)cc(Cl)c3)cc2=O)cc1`, the EC50 is 930 nM. Regarding `O=c1cc(COc2cc(Cl)cc(Cl)c2)[nH]n1-c1c(Cl)cc(C(F)(F)F)cc1Cl`, the concentration giving a half-maximal response (EC50) was above 32000 nM.

In the case of `O=c1cc(COc2cc(Cl)cc(Cl)c2)[nH][nH]1`, the EC50 is 67 nM. Under `O=C(c1cccs1)n1[nH]c(COc2cc(Cl)cc(Cl)c2)cc1=O` stands 310 nM; under `O=C1CC(COc2cc(Cl)cc(Cl)c2)CN1Cc1ccccc1` (stereo not given), above 32000 nM.

The record behind these values is ChEMBL document CHEMBL2163290, “Substituted pyrazolones require N2 hydrogen bond donating ability to protect against cytotoxicity from protein aggregation of mutant superoxide dismutase 1” (Bioorg Med Chem Lett, 2012).
